Drawing on PubChem BioAssay AID248 (DTP/NCI, 2004), this text covers T/C for 11 compounds.

“And” between values parts separate entries of the source, which are not always exact repeats. Identical values can stand only once. Toxic doses and inconclusive results are not listed.

The test concerns L1210 leukemia ip in BDF1 mice, survival T/C. In words: NCI In Vivo Anticancer Drug Screen. Data for tumor model L1210 Leukemia (intraperitoneal) in B6D2F1 (BDF1) mice. The settings on record: endpoint: mean survival time, higher = longer survival. The essentials: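 Transplantable tumor model; survival measured in treated vs vehicle control mice. Value = treated/control.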
Setting [1] is: dose: 100.0 mg/kg/injection, schedule: Q04DX003 (ip), vehicle: Klucel (hydroxypropylcellulose) (HPC).
[2] abbreviates: dose: 200.0 mg/kg/injection, schedule: Q04DX003 (ip), vehicle: Klucel (hydroxypropylcellulose) (HPC).
The mark [3] stands for this setting: dose: 50.0 mg/kg/injection, schedule: Q01DX001 (ip), vehicle: carboxymethylcellulose (CMC).
[4] abbreviates: dose: 100.0 mg/kg/injection, schedule: Q01DX001 (ip), vehicle: carboxymethylcellulose (CMC).
Where [5] appears, read: dose: 200.0 mg/kg/injection, schedule: Q01DX001 (ip), vehicle: carboxymethylcellulose (CMC).
Setting [6] is: dose: 400.0 mg/kg/injection, schedule: Q01DX001 (ip), vehicle: carboxymethylcellulose (CMC).
[7] abbreviates: dose: 100.0 mg/kg/injection, schedule: Q01DX009 (ip), vehicle: Klucel (hydroxypropylcellulose) (HPC).
[8] abbreviates: dose: 200.0 mg/kg/injection, schedule: Q01DX009 (ip), vehicle: Klucel (hydroxypropylcellulose) (HPC).

For `N#CSc1ccc(NN)cc1`, the T/C by setting is: (dose: 3.0 mg/kg/injection, schedule: Q01DX009 (ip), vehicle: saline with Tween-80) 97 % of control; (dose: 6.0 mg/kg/injection, schedule: Q01DX009 (ip), vehicle: saline with Tween-80) 90 % of control; (dose: 6.0 mg/kg/injection, schedule: Q04DX004 (ip), vehicle: saline with Tween-80) 100 % of control; (dose: 12.0 mg/kg/injection, schedule: Q01DX009 (ip), vehicle: saline with Tween-80) 95 % of control; (dose: 12.0 mg/kg/injection, schedule: Q04DX004 (ip), vehicle: saline with Tween-80) 98 % of control; (dose: 25.0 mg/kg/injection, schedule: Q01DX009 (ip), vehicle: saline with Tween-80) 96 % of control. For the same compound, the T/C reads like this: (dose: 25.0 mg/kg/injection, schedule: Q04DX003 (ip), vehicle: saline with Tween-80) 93 % of control; (dose: 25.0 mg/kg/injection, schedule: Q04DX004 (ip), vehicle: saline with Tween-80) 102 % of control.

On to `O=C(O)c1nsnc1C(=O)O`, for which the T/C (dose: 200.0 mg/kg/injection, schedule: Q01DX001 (ip), vehicle: saline) was 102 % of control and the T/C (dose: 400.0 mg/kg/injection, schedule: Q01DX001 (ip), vehicle: saline) is 103 % of control.

Regarding `CN(C)C(=S)SSSC(=S)N(C)C`, the T/C is, setting by setting: (dose: 25.0 mg/kg/injection, schedule: Q04DX002 (ip), vehicle: Klucel (hydroxypropylcellulose) (HPC)) 101 % of control; (dose: 50.0 mg/kg/injection, schedule: Q04DX002 (ip), vehicle: Klucel (hydroxypropylcellulose) (HPC)) 94 % of control; (dose: 100.0 mg/kg/injection, schedule: Q04DX002 (ip), vehicle: Klucel (hydroxypropylcellulose) (HPC)) 93 % of control and 105 % of control.

On to `CC(=O)Nc1ccc(O)cc1[N+](=O)[O-]`, for which the T/C runs as follows: under setting [1], 107 % of control; under setting [2], 103 % of control; (dose: 400.0 mg/kg/injection, schedule: Q04DX003 (ip), vehicle: Klucel (hydroxypropylcellulose) (HPC)) 103 % of control.

Turning to `Cn1c2c(c(=O)[nH]c1=O)OCN(Cc1ccccc1)C2`, the T/C runs as follows: under setting [3], 91 % of control; under setting [4], 100 % of control; under setting [5], 94 % of control; under setting [6], 100 % of control.

As for `COc1cc(C=Nc2ccc(-c3csc(COc4ccccc4)n3)cc2)ccc1N(CCCl)CCCl`, the T/C runs as follows: (dose: 3.7 mg/kg/injection, schedule: Q01DX015 (ip), vehicle: carboxymethylcellulose (CMC)) 116 % of control; (dose: 6.2 mg/kg/injection, schedule: Q01DX015 (ip), vehicle: carboxymethylcellulose (CMC)) 117 % of control; (dose: 9.3 mg/kg/injection, schedule: Q01DX015 (ip), vehicle: carboxymethylcellulose (CMC)) 119 % of control; (dose: 10.0 mg/kg/injection, schedule: Q01DX001 (ip), vehicle: carboxymethylcellulose (CMC)) 121 % of control; (dose: 15.0 mg/kg/injection, schedule: Q01DX015 (ip), vehicle: carboxymethylcellulose (CMC)) 124 % of control; (dose: 20.0 mg/kg/injection, schedule: Q01DX001 (ip), vehicle: carboxymethylcellulose (CMC)) 123 % of control. Moreover, the T/C is, setting by setting: (dose: 40.0 mg/kg/injection, schedule: Q01DX001 (ip), vehicle: carboxymethylcellulose (CMC)) 156 % of control; under setting [3], 107 % of control; (dose: 50.0 mg/kg/injection, schedule: Q01DX015 (ip), vehicle: carboxymethylcellulose (CMC)) 96 % of control and 104 % of control and 92 % of control; (dose: 66.6 mg/kg/injection, schedule: Q01DX001 (ip), vehicle: carboxymethylcellulose (CMC)) 164 % of control; under setting [4], 156 % of control; under setting [5], 104 % of control.

For `N#CC(C#N)=C1c2ccccc2C(=O)c2ccccc21`, the T/C by setting is: under setting [3], 104 % of control; under setting [4], 104 % of control; (dose: 100.0 mg/kg/injection, schedule: Q04DX003 (ip), vehicle: saline with Tween-80) 97 % of control; under setting [5], 104 % of control; (dose: 200.0 mg/kg/injection, schedule: Q04DX003 (ip), vehicle: saline with Tween-80) 98 % of control; under setting [6], 106 % of control. Besides, for the setting “dose: 400.0 mg/kg/injection, schedule: Q04DX003 (ip), vehicle: saline with Tween-80”, the T/C was 87 % of control.

Consider `CN(Cc1ccc(Cl)cc1)C(=O)Nc1ccccc1C(F)(F)F`, for which the T/C was 108 % of control (dose: 100.0 mg/kg/injection, schedule: Q01DX009 (ip), vehicle: saline with Tween-80); 106 % of control (dose: 200.0 mg/kg/injection, schedule: Q01DX009 (ip), vehicle: saline with Tween-80); 103 % of control (dose: 400.0 mg/kg/injection, schedule: Q01DX009 (ip), vehicle: saline with Tween-80).

`C=CCOC(=O)Oc1ccccc1Cl`: the T/C reads like this: under setting [7], 92 % of control; under setting [1], 95 % of control; under setting [8], 89 % of control; under setting [2], 97 % of control.

On to `O=C(c1ccccc1)C1CCC1`, for which the T/C was 92 % of control under setting [7]; 101 % of control (dose: 100.0 mg/kg/injection, schedule: Q04DX003 (ip), vehicle: saline); 98 % of control under setting [8]; 97 % of control (dose: 200.0 mg/kg/injection, schedule: Q04DX003 (ip), vehicle: saline); 92 % of control (dose: 400.0 mg/kg/injection, schedule: Q01DX009 (ip), vehicle: Klucel (hydroxypropylcellulose) (HPC)); 97 % of control (dose: 400.0 mg/kg/injection, schedule: Q04DX003 (ip), vehicle: saline).

Regarding `C1CN1P1(N2CC2)=NP(N2CC2)(N2CC2)=NP(N2CC2)(N2CC2)=NP(N2CC2)(N2CC2)=N1`, the T/C (dose: 4.4 mg/kg/injection, schedule: Q04DX003 (ip), vehicle: saline) was 114 % of control; the T/C (dose: 6.6 mg/kg/injection, schedule: Q04DX003 (ip), vehicle: saline) was 116 % of control; the T/C (dose: 10.0 mg/kg/injection, schedule: Q01DX001 (ip), vehicle: saline) was 118 % of control; the T/C (dose: 10.0 mg/kg/injection, schedule: Q04DX003 (ip), vehicle: saline) was 119 % of control; the T/C (dose: 20.0 mg/kg/injection, schedule: Q04DX003 (ip), vehicle: saline) was 117 % of control; the T/C (dose: 40.0 mg/kg/injection, schedule: Q01DX001 (ip), vehicle: saline) was 124 % of control. Where the note is “dose: 40.0 mg/kg/injection, schedule: Q04DX003 (ip), vehicle: saline”, the T/C is 109 % of control.
